Data set [1] in a line: Cytotoxicity against African green monkey Vero cells assessed as cell viability after 72 hrs by MTT assay. The format is cell-based. Particulars: chlorocebus sabaeus, read-out: MNCC. In general terms: Tetrazolium dyes change colour on reduction, which living cells bring about.
The subject of data set [2] is Mycobacterium tuberculosis. As to the kind of experiment: Potency index, ratio of cycloserine IC50 to test compound IC50 for antimycobacterial activity against Mycobacterium tuberculosis H37Rv by microdilution alamar blue broth assay. The format is functional.
A further data set concerns HT-29. As to the kind of experiment: Antiproliferative activity against human HT-29 cells assessed as inhibition of cell proliferation incubated for 72 hrs by CellTiter-Glo assay. The format is functional, cell-based. Particulars: HT-29, 72 h.
The target in a further data set is Acetylcholinesterase (Homo sapiens, UniProt P22303). As to the kind of experiment: Inhibition of AChE (unknown origin) using acetylthiocholine chloride as substrate preincubated with enzyme for 15 mins followed by substrate addition by Ellman's method.
The subject of data set [3] is MCF7. As to the kind of experiment: Antiproliferative activity against human MCF7 cells assessed as inhibition of cell proliferation at 50 uM incubated for 72 hrs by CellTiter-Glo assay relative to control. The format is functional. Particulars: MCF7, read-out: INH. (In general: In ATP-based viability assays light output follows the ATP content of the culture.)
Data set [4] deals with Mycobacterium tuberculosis. As to the kind of experiment: Potency index, ratio of pyrimethamine IC50 to test compound IC50 for antimycobacterial activity against Mycobacterium tuberculosis H37Rv by microdilution alamar blue broth assay. It is filed as functional. On the technique in general: Broth dilution looks for growth in wells or tubes with falling amounts of substance.

For data set [5], the system named is Mycobacterium tuberculosis. As to the kind of experiment: Antimycobacterial activity against Mycobacterium tuberculosis H37Rv assessed as inhibition of bacterial growth by microdilution alamar blue broth assay. The format is functional, organism-based.
Data set [6] concerns MCF7. As to the kind of experiment: Antiproliferative activity against human MCF7 cells assessed as inhibition of cell proliferation incubated for 72 hrs by CellTiter-Glo assay. It is filed as functional, cell-based. The settings on record: MCF7, 72 h.
Data set [7] relates to Mycobacterium tuberculosis. As to the kind of experiment: Antimycobacterial activity against Mycobacterium tuberculosis H37Rv assessed as inhibition of bacterial growth at 0.17 mM by microdilution alamar blue broth assay relative to control. The format is functional.
For data set [8], the system named is Mycobacterium tuberculosis. As to the kind of experiment: Antimycobacterial activity against Mycobacterium tuberculosis H37Rv assessed as inhibition of bacterial growth at 3.198 mM by microdilution alamar blue broth assay. The format is functional, organism-based.

The values below come from ChEMBL document CHEMBL4715772, “A facile stereoselective synthesis of dispiro-indeno pyrrolidine/pyrrolothiazole-thiochroman hybrids and evaluation of their antimycobacterial, anticancer and AchE inhibitory activities” (Bioorg Med Chem, 2016).

Structures are written as SMILES. Converted amounts (≈) assume the structure as drawn. The source made the active and inactive calls. The rule behind the calls is not given here.

What is called IC50 is the concentration needed to halve the response being measured. Broadly, the IC90 is the point of the concentration-response curve where the effect stands at 90%. As usually defined, the MIC is the least concentration at which growth counts as inhibited.

Sequence of Acetylcholinesterase (P22303 whole entry): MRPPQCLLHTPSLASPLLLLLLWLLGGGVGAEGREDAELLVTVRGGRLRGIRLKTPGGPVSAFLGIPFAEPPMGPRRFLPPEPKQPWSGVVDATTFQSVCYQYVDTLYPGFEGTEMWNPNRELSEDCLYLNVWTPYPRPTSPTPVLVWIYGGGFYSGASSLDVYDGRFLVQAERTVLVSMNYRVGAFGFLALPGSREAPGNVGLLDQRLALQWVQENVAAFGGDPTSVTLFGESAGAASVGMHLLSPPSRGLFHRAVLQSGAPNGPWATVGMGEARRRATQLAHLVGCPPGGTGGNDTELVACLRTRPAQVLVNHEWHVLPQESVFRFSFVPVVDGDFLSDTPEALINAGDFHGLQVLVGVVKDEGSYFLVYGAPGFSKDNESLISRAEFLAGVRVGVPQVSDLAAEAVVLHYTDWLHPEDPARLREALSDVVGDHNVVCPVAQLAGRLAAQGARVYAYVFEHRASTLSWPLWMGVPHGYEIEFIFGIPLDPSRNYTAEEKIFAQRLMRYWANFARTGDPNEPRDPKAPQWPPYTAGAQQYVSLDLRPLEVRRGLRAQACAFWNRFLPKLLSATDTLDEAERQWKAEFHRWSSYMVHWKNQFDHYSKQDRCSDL

On to `CN1CC(c2ccc(Cl)cc2Cl)[C@@]2(CSc3ccccc3C2=O)C12C(=O)c1ccccc1C2=O` (single isomer, unassigned), for which the MNTC at 72 h in [1] was more than 6.25 µg/mL. The results for the “Ratio IC50” value in data set [2] and in data set [4] were 12 and 37, respectively. Also, the IC50 came out at 90 µM in the data set on HT-29, 24.1 µM on Acetylcholinesterase, 1.07 µM in data set [5] and 107 µM with MCF7 [6]. Besides, the inhibition at 50 µM in the data set with MCF7 [3] is less than 50%. Also, in data set [5], the IC90 turned out to be 1.98 µM. The MIC in data set [5] is 6.25 µM (≈ 3.18 µg/mL).

In the case of `NCC[C@H](O)C(=O)N[C@@H]1C[C@H](N)[C@@H](O[C@H]2O[C@H](CN)[C@@H](O)[C@H](O)[C@H]2O)[C@H](O)[C@H]1O[C@H]1O[C@H](CO)[C@@H](O)[C@H](N)[C@H]1O` [AMIKACIN], the MNTC at 72 h in data set [1] is more than 6.25 µg/mL. For the same molecule, in data set [5], the IC90 came out at 0.08 µM and the MIC is 0.16 µM (≈ 0.0937 µg/mL). Also, in data set [7], the inhibition at 170 µM was found to be 30%. In addition, the result in [8] was Active.

Regarding `Cc1ccc([C@@H]2CN(C)C3(C(=O)c4ccccc4C3=O)[C@]23CSc2ccccc2C3=O)cc1`, the MNTC at 72 h in [1] is more than 6.25 µg/mL. In addition, the IC50 turned out to be 101 µM with HT-29, 6.6 µM at Acetylcholinesterase, 47.2 µM in data set [5] and 105 µM in the data set with MCF7 [6]. Besides, the inhibition at 50 µM in the data set on MCF7 [3] is less than 50%. Besides, in [5], the IC90 worked out at 66.5 µM. In data set [5], the MIC came to 100 µM (≈ 45.4 µg/mL).

As for `COc1ccc([C@@H]2CN(C)C3(C(=O)c4ccccc4C3=O)[C@]23CSc2ccccc2C3=O)cc1`, in [1], the MNTC at 72 h is more than 6.25 µg/mL. Further, the IC50 in the data set on HT-29 is 93.4 µM; on Acetylcholinesterase it was 1.16 µM; in [5], 18.3 µM; in the data set on MCF7 [6], 102 µM. Also, the inhibition at 50 µM in the data set on MCF7 [3] was less than 50%. In addition, in data set [5], the IC90 is 36.5 µM. The MIC in [5] amounted to 50 µM (≈ 23.5 µg/mL).

`O=C1c2ccccc2C(=O)C12N1CSC[C@@H]1C(c1ccc(Cl)cc1Cl)[C@@]21CSc2ccccc2C1=O` (single isomer, unassigned): in [1], the MNTC at 72 h was more than 6.25 µg/mL. The “Ratio IC50” value in [2] is listed as 4; in [4] it was 12. Besides, the IC50 in the data set on HT-29 stood at 101 µM; against Acetylcholinesterase, 19.5 µM; in [5] it was 2.87 µM; in the data set on MCF7 [6], 105 µM. Moreover, in the data set with MCF7 [3], the inhibition at 50 µM is less than 50%. For the same molecule, in data set [5], the IC90 worked out at 4.6 µM. Also, the MIC in data set [5] amounted to 6.25 µM (≈ 3.45 µg/mL).

As to `CN1CC(c2ccccc2Cl)[C@@]2(CSc3ccccc3C2=O)C12C(=O)c1ccccc1C2=O` (single isomer, unassigned), in [1], the MNTC at 72 h was more than 6.25 µg/mL. Further, the IC50 in the data set on HT-29 was 97.2 µM; against Acetylcholinesterase, 10.1 µM; in [5], 47.2 µM; with MCF7 [6] it was 86 µM. Besides, in the data set on MCF7 [3], the inhibition at 50 µM was less than 50%. Further, the IC90 in data set [5] worked out at 66.5 µM. Moreover, in [5], the minimal inhibitory concentration (MIC) came out at 100 µM (≈ 47.4 µg/mL).

On to `CN1C[C@@H](c2cccc(Br)c2)[C@@]2(CSc3ccccc3C2=O)C12C(=O)c1ccccc1C2=O`, for which the MNTC at 72 h in data set [1] is more than 6.25 µg/mL. In addition, the IC50 with HT-29 came out at 108 µM; on Acetylcholinesterase, 19.8 µM; in data set [5], 5.81 µM; in the data set with MCF7 [6] it was 110 µM. Moreover, the inhibition at 50 µM with MCF7 [3] is less than 50%. In data set [5], the IC90 was determined as 16.1 µM. Further, the MIC in data set [5] turned out to be 25 µM (≈ 13 µg/mL).

As for `CN1C[C@@H](c2cccc3ccccc23)[C@@]2(CSc3ccccc3C2=O)C12C(=O)c1ccccc1C2=O`, the MNTC at 72 h in data set [1] is more than 6.25 µg/mL. Further, the IC50 in the data set with HT-29 was found to be 97.2 µM; against Acetylcholinesterase, 2.12 µM; in [5], 6.87 µM; in the data set on MCF7 [6], 86 µM. The inhibition at 50 µM in the data set on MCF7 [3] is less than 50%. Further, in data set [5], the IC90 was found to be 14.6 µM. Also, in data set [5], the MIC turned out to be 25 µM (≈ 12.2 µg/mL).

As for `CC(C)c1ccc([C@@H]2CN(C)C3(C(=O)c4ccccc4C3=O)[C@]23CSc2ccccc2C3=O)cc1`, the MNTC at 72 h in [1] is more than 6.25 µg/mL. For the same molecule, the IC50 in the data set on HT-29 turned out to be 98.3 µM; against Acetylcholinesterase it was 19.8 µM; in data set [5], 25.9 µM; in the data set with MCF7 [6] it was 93 µM. In the data set on MCF7 [3], the inhibition at 50 µM is less than 50%. In data set [5], the IC90 is 44.6 µM. Further, in data set [5], the MIC was found to be 100 µM (≈ 48.2 µg/mL).

Consider `CN1C[C@@H](c2ccc(F)cc2)[C@@]2(CSc3ccccc3C2=O)C12C(=O)c1ccccc1C2=O`, for which, in data set [1], the MNTC at 72 h is more than 6.25 µg/mL. Also, the IC50 in the data set with HT-29 turned out to be 99.6 µM; against Acetylcholinesterase it was 23.3 µM; in data set [5], 11.1 µM; in the data set with MCF7 [6], 105 µM. For the same molecule, the inhibition at 50 µM with MCF7 [3] was less than 50%. In [5], the IC90 is 22 µM. Further, the MIC in data set [5] came to 50 µM (≈ 22.9 µg/mL).

As for `O=C1c2ccccc2C(=O)C12N1CSC[C@@H]1C(c1ccccc1Cl)[C@@]21CSc2ccccc2C1=O` (single isomer, unassigned), the MNTC at 72 h in [1] was more than 6.25 µg/mL. Moreover, the half-maximal inhibitory concentration (IC50) was 88.1 µM in the data set on HT-29, 33.2 µM on Acetylcholinesterase, 8.57 µM in data set [5] and 101 µM in the data set on MCF7 [6]. Further, the inhibition at 50 µM in the data set on MCF7 [3] is less than 50%. The IC90 in data set [5] worked out at 14.7 µM. The MIC in [5] was 50 µM (≈ 25.9 µg/mL).

`O=C1c2ccccc2C(=O)C12N1CSC[C@@H]1[C@@H](c1cccc(F)c1)[C@@]21CSc2ccccc2C1=O`: in data set [1], the MNTC at 72 h is more than 6.25 µg/mL. For the same molecule, the IC50 with HT-29 came to 91.7 µM; at Acetylcholinesterase, 12.2 µM; in data set [5], 16.4 µM; in the data set on MCF7 [6] it was 116 µM. Further, the inhibition at 50 µM with MCF7 [3] was less than 50%. Besides, in data set [5], the IC90 was determined as 22 µM. Besides, the MIC in data set [5] worked out at 50 µM (≈ 25.1 µg/mL).

As to `O=C1c2ccccc2C(=O)C12N1CSC[C@@H]1[C@@H](c1cccc(Br)c1)[C@@]21CSc2ccccc2C1=O`, the MNTC at 72 h in data set [1] is more than 6.25 µg/mL. Besides, the IC50 with HT-29 came out at 79.6 µM; at Acetylcholinesterase, 38.3 µM; in data set [5], 17.2 µM; in the data set with MCF7 [6] it was 84.8 µM. For the same molecule, in the data set with MCF7 [3], the inhibition at 50 µM was less than 50%. For the same molecule, in data set [5], the IC90 was determined as 35.5 µM. In [5], the minimal inhibitory concentration (MIC) was 50 µM (≈ 28.1 µg/mL).
